The values that follow come from US20100227853A1, “INHIBITORS OF CYCLIC AMP PHOSPHODIESTERASES” (Trustees of Boston College, priority 2008, published 2010).

Structures are written as SMILES.

Assay [1] deals with PDE4B (Homo sapiens, UniProt Q07343). The experiment in a line: in vitro enzyme assay PDE4B (Table 7). The class given is biochemical. The note with it: 2 micromolar compound; for remaining activity at 2 µM: read-out: percent of PDE activity present, PDE4B.
Assay [2] concerns the target PDE4A (Homo sapiens, UniProt P27815). Briefly: in vitro enzyme assay PDE4A (Table 7). Type of assay: biochemical. The note with it: 2 micromolar compound; for remaining activity at 2 µM: read-out: percent of PDE activity present, PDE4A.
In assay [3] the target is T1, PDE7A (Homo sapiens, UniProt Q13946). The experiment in a line: in vitro enzyme assay PDE7A. Type of assay: biochemical. On the set-up: made in house; host or cells: E. coli. The note with it: 2 micromolar compound; for remaining activity at 2 µM: read-out: percent of PDE activity present, PDE7A.
T1 sequence (Q13946 whole entry): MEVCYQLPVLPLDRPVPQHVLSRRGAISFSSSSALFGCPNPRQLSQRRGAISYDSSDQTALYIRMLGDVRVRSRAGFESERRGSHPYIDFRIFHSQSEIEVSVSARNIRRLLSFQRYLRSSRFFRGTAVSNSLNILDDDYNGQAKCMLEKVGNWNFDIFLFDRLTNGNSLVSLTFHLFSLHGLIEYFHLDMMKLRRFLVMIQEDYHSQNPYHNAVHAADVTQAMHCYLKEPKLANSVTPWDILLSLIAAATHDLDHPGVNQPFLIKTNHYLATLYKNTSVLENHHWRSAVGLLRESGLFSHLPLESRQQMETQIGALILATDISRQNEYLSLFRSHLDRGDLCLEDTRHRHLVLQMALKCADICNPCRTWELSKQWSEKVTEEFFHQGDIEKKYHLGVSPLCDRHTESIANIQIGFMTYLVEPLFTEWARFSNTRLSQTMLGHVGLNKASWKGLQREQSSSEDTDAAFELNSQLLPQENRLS
The target in assay [4] is PDE4D (Homo sapiens, UniProt Q08499). The experiment in a line: in vitro enzyme assay PDE4D (Table 7). The class given is biochemical. The note with it: 2 micromolar compound; for remaining activity at 2 µM: read-out: percent of PDE activity present, PDE4D.
Sequence of PDE4D (Q08499 whole entry): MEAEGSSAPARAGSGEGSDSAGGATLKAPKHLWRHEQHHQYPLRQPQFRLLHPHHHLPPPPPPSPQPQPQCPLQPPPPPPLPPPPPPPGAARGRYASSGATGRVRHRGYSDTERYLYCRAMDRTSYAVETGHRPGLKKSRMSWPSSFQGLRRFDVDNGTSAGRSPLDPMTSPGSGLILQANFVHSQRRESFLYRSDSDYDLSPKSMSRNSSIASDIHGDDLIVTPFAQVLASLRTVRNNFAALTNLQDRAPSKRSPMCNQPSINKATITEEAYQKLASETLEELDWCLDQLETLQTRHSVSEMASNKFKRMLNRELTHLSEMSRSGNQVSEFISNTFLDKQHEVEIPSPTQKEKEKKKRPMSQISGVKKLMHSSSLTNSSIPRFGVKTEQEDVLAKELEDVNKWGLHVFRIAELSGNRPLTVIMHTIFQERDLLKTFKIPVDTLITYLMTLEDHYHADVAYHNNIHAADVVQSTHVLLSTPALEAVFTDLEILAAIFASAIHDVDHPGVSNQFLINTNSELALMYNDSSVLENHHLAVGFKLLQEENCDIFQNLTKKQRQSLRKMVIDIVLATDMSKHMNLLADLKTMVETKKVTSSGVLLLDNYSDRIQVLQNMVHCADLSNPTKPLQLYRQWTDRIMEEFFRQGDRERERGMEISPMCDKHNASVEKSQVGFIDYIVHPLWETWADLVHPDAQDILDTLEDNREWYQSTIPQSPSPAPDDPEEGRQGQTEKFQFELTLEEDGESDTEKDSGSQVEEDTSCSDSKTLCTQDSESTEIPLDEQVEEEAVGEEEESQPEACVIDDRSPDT
Assay [5] concerns PDE4A, PDE4B, PDE4D, PDE7A, PDE7B, PDE8A, PDE3A. Briefly: Summary of PDE inhibitor profile. Details: key to PDE inhibitor profile (Table 17): (1): Strong PDE4A, PDE4B inhibitor; (2): Strong PDE4A inhibitor; (3): Strong PDE4B, moderate PDE4A inhibitor; (4): Moderate PDE4A, PDE4B inhibitor; (5): Moderate PDE4B inhibitor; key to inhibitor class, Table 16: (1): Weak PDE7A inhibitor; (2): Strong PDE7A inhibitor; (3): Lillte/no activity under conditions used; (4): Weak PDE4A inhibitor. The note with it: for PDE inhibitor profile (Table 17): overall classification, Table 17 footnotes.

Assay [6] deals with T2, PDE4B3 (Mus musculus, UniProt Q8VBU5).
T2 construct: targets used in the assays are full-length proteins (as opposed to simply the catalytic domain); expressed in transfected cells; host or cells: Schizosaccharomyces pombe, PDE gene integrated in place of cgs2
T2 sequence (Q8VBU5 1-721): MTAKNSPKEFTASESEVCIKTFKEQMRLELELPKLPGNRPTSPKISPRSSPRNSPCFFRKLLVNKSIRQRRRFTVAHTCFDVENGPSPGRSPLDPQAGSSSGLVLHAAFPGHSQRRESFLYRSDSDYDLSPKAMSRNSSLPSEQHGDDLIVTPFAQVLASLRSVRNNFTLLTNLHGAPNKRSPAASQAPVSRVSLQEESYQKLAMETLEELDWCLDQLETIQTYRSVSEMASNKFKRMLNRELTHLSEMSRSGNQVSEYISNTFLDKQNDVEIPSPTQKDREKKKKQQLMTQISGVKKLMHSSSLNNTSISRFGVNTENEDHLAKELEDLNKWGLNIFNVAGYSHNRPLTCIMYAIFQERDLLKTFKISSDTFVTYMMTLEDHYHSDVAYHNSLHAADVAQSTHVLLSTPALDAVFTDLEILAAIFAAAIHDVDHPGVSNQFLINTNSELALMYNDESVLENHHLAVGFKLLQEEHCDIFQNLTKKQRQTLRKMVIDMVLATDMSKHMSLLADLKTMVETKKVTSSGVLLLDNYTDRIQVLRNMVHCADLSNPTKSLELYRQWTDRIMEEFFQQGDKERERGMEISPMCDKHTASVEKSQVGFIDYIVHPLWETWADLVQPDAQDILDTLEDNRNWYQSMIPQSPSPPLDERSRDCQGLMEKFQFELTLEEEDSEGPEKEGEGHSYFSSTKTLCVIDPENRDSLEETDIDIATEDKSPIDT
The experiment in a line: 5FOA growth assay in fission yeast strain expressing PDE4B3. Type of assay: cell-based, Murine. The note with it: 20 uM. The gist of the method:
(§1)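 Fission yeast strains carrying mouse PDE4A1 or PDE4B3 and an fbp1-ura4 reporter were pregrown in EMM with 0.5–2.5 mM cAMP, then seeded at 0.5–4×10^5 cells/ml in 5FOA medium with compound. Growth was read as OD600 after 48 h at 30° C; composite Z scores were derived.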

The target of assay [7] is T1, PDE7A. Briefly: 5FOA growth assay in fission yeast strain expressing PDE7A. Type of assay: cell-based. On the set-up: targets used in the assays are full-length proteins (as opposed to simply the catalytic domain); expressed in transfected cells; host or cells: Schizosaccharomyces pombe, PDE gene integrated in place of cgs2. The note with it: unit not given. Here is the method: PDE inhibition allows growth in 5FOA medium as measured by optical density after 48 hours incubation at 30° C. Compound BC12 and six structural analogs were tested for growth stimulation.
Cells were pregrown in EMM medium [MP Biomedicals (Solon, Ohio), 3% glucose, filter-sterilized to avoid carmelization, which would introduce variability into the optical density of the medium] containing from 0 mM to 2.5 mM cAMP (or either 0.5 mM or 1.0 mM cGMP). This was to repress expression of the fbp1-ura4 reporter prior to exposure of cells to 5FOA medium. Cells were grown at 30° C. to exponential phase (approximately 10^7 cells/ml). Cells were collected by centrifugation and resuspended in 5FOA medium, and 25 μl were transferred to 384-well microtiter dishes (untreated, with flat clear bottoms) that had been pre-filled with 25 μl 5FOA medium and pre-pinned with 100 nl of compounds (stock solutions were generally 10 mM). Starting cell concentrations ranged from 0.5×10^5 to 4×10^5 cells/ml depending on the screening strain. […] Other positive control dishes contained 5 mM cAMP in the 5FOA medium for PDEs that lack appropriate control compounds. Cultures were grown for 48 hours at 30° C., sealed in an airtight container with moist paper towels to prevent evaporation. Optical densities (OD600) of cultures were measured using a microplate reader. Bioinformatic analysis of the results to determine composite Z scores was performed as previously described (1, 3).

Assay [8] relates to U937 cells. The experiment in a line: TNF alpha release by LPS-treated U937 cells. Type of assay: cell-based. The note with it: for TNF alpha, % vehicle control: 10 uM cmpd, 0 uM BC30.
The target in assay [9] is T3, PDE4A1 (Mus musculus, UniProt O89084).
T3 construct: targets used in the assays are full-length proteins (as opposed to simply the catalytic domain); expressed in transfected cells; host or cells: Schizosaccharomyces pombe, PDE gene integrated in place of cgs2
T3 sequence (O89084 1-610 isoform O89084-2): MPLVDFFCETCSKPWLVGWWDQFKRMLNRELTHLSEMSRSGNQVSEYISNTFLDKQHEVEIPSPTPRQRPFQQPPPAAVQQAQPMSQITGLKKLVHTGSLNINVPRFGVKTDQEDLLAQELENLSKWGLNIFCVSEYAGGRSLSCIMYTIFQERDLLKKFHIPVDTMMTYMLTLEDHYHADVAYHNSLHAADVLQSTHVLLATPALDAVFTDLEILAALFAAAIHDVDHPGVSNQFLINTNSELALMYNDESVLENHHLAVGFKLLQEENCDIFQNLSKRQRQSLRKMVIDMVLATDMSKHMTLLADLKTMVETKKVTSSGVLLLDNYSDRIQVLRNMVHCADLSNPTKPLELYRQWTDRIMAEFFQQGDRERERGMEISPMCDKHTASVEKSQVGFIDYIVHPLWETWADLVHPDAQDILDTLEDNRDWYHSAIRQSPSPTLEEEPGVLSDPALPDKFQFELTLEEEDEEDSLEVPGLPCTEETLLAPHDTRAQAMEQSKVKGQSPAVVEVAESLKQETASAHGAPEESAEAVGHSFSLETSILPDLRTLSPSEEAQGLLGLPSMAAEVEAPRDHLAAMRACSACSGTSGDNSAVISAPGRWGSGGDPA
The experiment in a line: 5FOA growth assay (high throughput screen, ED50) in fission yeast strain expressing PDE4A1. Type of assay: cell-based. The note with it: for Composite Z score, PDE4A1: high throughput 5FOA growth screen, greater than 8.53 = statistically-significant inhibitor. A digest of the protocol:
as §1

Sequence of PDE4B (Q07343 whole entry, species assumed): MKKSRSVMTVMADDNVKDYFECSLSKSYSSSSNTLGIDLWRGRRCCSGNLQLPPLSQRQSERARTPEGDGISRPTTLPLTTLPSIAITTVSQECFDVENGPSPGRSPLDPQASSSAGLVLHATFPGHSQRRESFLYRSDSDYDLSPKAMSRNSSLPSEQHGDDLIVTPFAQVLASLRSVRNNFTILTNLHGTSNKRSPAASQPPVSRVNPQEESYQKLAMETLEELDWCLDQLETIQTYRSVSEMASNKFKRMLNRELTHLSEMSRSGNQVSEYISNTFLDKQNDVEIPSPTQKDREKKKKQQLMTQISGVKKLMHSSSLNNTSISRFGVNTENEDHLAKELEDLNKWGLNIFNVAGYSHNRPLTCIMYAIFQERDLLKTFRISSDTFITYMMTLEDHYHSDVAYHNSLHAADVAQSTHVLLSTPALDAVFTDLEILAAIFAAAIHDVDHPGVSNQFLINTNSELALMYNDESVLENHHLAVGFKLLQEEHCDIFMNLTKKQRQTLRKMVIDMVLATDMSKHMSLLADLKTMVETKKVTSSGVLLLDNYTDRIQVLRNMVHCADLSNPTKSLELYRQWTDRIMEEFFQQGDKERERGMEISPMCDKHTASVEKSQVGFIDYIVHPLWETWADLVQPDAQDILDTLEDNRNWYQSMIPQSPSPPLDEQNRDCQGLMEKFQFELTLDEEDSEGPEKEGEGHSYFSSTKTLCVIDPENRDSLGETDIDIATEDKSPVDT
Sequence of PDE4A (P27815 whole entry, species assumed): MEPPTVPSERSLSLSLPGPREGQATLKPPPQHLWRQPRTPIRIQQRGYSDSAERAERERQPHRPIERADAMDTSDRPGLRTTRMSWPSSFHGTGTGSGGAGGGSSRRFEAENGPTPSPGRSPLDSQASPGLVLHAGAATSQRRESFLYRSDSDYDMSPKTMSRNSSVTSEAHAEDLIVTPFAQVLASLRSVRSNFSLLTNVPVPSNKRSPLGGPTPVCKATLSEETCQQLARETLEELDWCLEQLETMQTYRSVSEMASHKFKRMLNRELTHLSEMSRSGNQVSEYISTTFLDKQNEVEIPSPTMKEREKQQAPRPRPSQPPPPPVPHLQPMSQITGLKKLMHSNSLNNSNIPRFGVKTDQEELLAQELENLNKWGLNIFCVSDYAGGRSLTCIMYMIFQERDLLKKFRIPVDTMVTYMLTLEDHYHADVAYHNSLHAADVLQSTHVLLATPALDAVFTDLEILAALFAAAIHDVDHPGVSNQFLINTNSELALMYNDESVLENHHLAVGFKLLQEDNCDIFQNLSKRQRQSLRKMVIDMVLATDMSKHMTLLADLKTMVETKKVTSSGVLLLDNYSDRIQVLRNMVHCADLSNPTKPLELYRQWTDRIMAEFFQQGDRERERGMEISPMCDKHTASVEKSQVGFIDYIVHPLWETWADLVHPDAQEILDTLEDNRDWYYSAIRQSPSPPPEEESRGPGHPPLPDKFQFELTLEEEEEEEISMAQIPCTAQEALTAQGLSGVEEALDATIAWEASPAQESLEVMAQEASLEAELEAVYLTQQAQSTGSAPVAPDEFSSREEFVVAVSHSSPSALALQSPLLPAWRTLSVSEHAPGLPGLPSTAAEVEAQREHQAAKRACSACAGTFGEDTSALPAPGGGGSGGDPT

In the case of `CCN(CC)c1nc(C)nc2sc(C(=O)Nc3ccc(F)cc3F)c(C)c12` [Compound 58-6], the remaining activity at 2 µM in assay [1] was determined as 61%; in assay [2], 73%; in assay [4], 68%. In [3], the “percent of PDE activity present, PDE7A” value was found to be 75%.

On to `N#Cc1sc2sc(C#N)c(-c3ccc(Cl)cc3)c2c1N` [Compound 30-3], for which the “inhibitor class, Table 16” value in assay [5] was 554, N12 KM03474 30-3 (3). The “1 Assay (20 uM) 4B3” value in assay [6] was found to be 1.462 ND ND ND ND. In addition, the “ED50, 7A” value in assay [7] was “ND ND inactive ND ND”.

As to `N#Cc1sc2sc(C#N)c(-c3cccs3)c2c1N` [Compound 30-2], the “inhibitor class, Table 16” value in assay [5] is 1441, G04 KM03473 30-2 (1). Besides, in assay [6], the “1 Assay (20 uM) 4B3” value is on record as −0.3999 ND ND ND ND. In addition, the “ED50, 7A” value in [7] was “ND ND active/plateaus ND ND”.

In the case of `Cc1nc(N2CCOCC2)c2c(C)c(C(=O)Nc3ccc(F)cc3F)sc2n1` [Compound 58-2], the remaining activity at 2 µM in assay [1] was 39%; in assay [2], 26%; in assay [3], 88%; in assay [4], 30%.

Regarding `Cc1ccc([N+](=O)[O-])cc1S(=O)(=O)N(C)C` [BRL], the “TNF alpha (EtoH = 100.0)” value in assay [8] (3 HOURS) stood at 92.5; in [8] (20 HOURS), 102.6. Besides, the TNF was 4565 pg/mL in [8] (3 HOURS, high BRL); 4491 pg/mL in assay [8] (3 HOURS, low BRL); 13111 pg/mL in assay [8] (20 HOURS, high BRL); 12718 pg/mL in [8] (20 HOURS, low BRL). Moreover, the “TNF, % EtOH cntrl” value in assay [8] (3 HOURS, high BRL) worked out at 94.5%; in assay [8] (3 HOURS, low BRL), 93.0%; in assay [8] (20 HOURS, high BRL), 95.8%; in assay [8] (20 HOURS, low BRL), 92.9%.

`Cc1nc(N2CCCCC2C)c2c(C)c(C(=O)Nc3ccc(F)cc3F)sc2n1` (centres unmarked) [Compound 58-4]: the remaining activity at 2 µM was found to be 47% in assay [1], 26% in assay [2], 74% in [3] and 54% in assay [4].

Turning to `CC(C)(C)c1c(C#N)sc2sc(C#N)c(N)c12` [Compound 30-4], in assay [5], the “inhibitor class, Table 16” value is reported as “Maybridge: KM03484 30-4 (3)”. For the same compound, the “ED50, 7A” value in assay [7] is “ND ND weak activity ND ND”.

Take `Cc1nc(N2CCC(C)CC2)c2c(C)c(C(=O)Nc3c(F)cc(F)cc3Br)sc2n1` [Compound 58-5]: the remaining activity at 2 µM came out at 46% in [1], 69% in assay [2], 90% in [3] and 68% in [4].

On to `CCN(CC)c1nc(C)nc2sc(C(=O)Nc3ccc(F)cc3F)c(C)c12` [Compound 58-8], for which the “percent of PDE activity present, PDE4B” value in assay [1] came to 56%. In addition, the “percent of PDE activity present, PDE4A” value in assay [2] worked out at 84%. For the same compound, in [3], the “percent of PDE activity present, PDE7A” value was found to be 48%. Moreover, in [4], the “percent of PDE activity present, PDE4D” value was 76%.

In the case of `Cc1c(C(=O)Nc2ccc3c(c2)OCCO3)sc2ncnc(N3CCc4ccccc4C3)c12` [Compound 58-10], the remaining activity at 2 µM in assay [1] is 39%; in assay [2] it was 60%; in assay [3], 84%; in assay [4], 70%. Besides, the “Composite Z score, PDE4A1” value in assay [9] is given as 32.338.

Regarding `Cc1c(C(=O)Nc2ccc(F)cc2F)sc2ncnc(N3CCN(C)CC3)c12` [Compound 58-1], the remaining activity at 2 µM in [1] was 64%; in [2], 84%; in assay [3], 98%; in assay [4], 90%.

With `CCOC(=O)c1sc2sc(C(=O)OCC)c(-c3ccco3)c2c1N` [Compound 30-1], the “inhibitor class, Table 16” value in assay [5] is 1441, C04 KM03459 30-1 (4). In [6], the “1 Assay (20 uM) 4B3” value is reported as 8.4406 ND ND ND ND. Further, in assay [7], the “ED50, 7A” value is “ND ND inactive ND ND”.

For the compound `COc1cc(NC(=O)c2sc3ncnc(N4CCCCC4C)c3c2C)cc(OC)c1OC` (centres unmarked) [Compound 58-3], the remaining activity at 2 µM amounted to 15% in assay [1], 14% in assay [2], 20% in assay [3] and 30% in assay [4]. Besides, the “Composite Z score, PDE4A1” value in assay [9] turned out to be 27.41.

As to `CC(C)n1c2ccc(Cl)cc2c2nc3ccccc3nc21` [Compound 35], the TNF amounted to 4383 pg/mL in [8] (3 HOURS) and 11728 pg/mL in assay [8] (20 HOURS). For the same compound, the “TNF, % EtOH cntrl” value in [8] (3 HOURS) is 90.7%; in assay [8] (20 HOURS), 85.7%. For the same compound, the “TNF alpha, % vehicle control” value in assay [8] (after 3 h.) is given as 95.8%; in assay [8] (after 20 h.) it was 66.1%. For the same compound, the “PDE inhibitor profile (Table 17)” value in [5] is 35 (1).

With `CCCn1c2ccccc2c2nc3ccccc3nc21` [1422, K02], the “PDE inhibitor profile (Table 17)” value in [5] is 1422, K02 (1). For the same compound, the “1 Assay (20 uM) 4B3” value in [6] (PDE 4B3) is 115.27 ND ND ND ND. The “1 Assay (20 uM) 4A1” value in assay [9] (20 uM, PDE 4A1) worked out at 72.21 ND ND ND ND.
